Laboratory results: ChEMBL document CHEMBL4041509, “Structure-activity relationship study of novel 2-aminobenzofuran derivatives as P-glycoprotein inhibitors” (Eur J Med Chem, 2017)
Calls of active or inactive are those of the source. The calls are words filed in the database; no cut-off is given here.

How the values were obtained:
[1] = molecular target: T1, ATP-dependent translocase ABCB1 (Homo sapiens, UniProt P08183); test: Inhibition of ABCB1 (unknown origin) expressed in Flp-In-293 cells assessed as increase in calcein-AM uptake at 5 uM preincubated for 30 mins followed by calcein-AM addition measured after 30 mins by fluorescence spectrometric method relative to control; format: cell-based; conditions: 0.5 h
T1 sequence (P08183 whole entry): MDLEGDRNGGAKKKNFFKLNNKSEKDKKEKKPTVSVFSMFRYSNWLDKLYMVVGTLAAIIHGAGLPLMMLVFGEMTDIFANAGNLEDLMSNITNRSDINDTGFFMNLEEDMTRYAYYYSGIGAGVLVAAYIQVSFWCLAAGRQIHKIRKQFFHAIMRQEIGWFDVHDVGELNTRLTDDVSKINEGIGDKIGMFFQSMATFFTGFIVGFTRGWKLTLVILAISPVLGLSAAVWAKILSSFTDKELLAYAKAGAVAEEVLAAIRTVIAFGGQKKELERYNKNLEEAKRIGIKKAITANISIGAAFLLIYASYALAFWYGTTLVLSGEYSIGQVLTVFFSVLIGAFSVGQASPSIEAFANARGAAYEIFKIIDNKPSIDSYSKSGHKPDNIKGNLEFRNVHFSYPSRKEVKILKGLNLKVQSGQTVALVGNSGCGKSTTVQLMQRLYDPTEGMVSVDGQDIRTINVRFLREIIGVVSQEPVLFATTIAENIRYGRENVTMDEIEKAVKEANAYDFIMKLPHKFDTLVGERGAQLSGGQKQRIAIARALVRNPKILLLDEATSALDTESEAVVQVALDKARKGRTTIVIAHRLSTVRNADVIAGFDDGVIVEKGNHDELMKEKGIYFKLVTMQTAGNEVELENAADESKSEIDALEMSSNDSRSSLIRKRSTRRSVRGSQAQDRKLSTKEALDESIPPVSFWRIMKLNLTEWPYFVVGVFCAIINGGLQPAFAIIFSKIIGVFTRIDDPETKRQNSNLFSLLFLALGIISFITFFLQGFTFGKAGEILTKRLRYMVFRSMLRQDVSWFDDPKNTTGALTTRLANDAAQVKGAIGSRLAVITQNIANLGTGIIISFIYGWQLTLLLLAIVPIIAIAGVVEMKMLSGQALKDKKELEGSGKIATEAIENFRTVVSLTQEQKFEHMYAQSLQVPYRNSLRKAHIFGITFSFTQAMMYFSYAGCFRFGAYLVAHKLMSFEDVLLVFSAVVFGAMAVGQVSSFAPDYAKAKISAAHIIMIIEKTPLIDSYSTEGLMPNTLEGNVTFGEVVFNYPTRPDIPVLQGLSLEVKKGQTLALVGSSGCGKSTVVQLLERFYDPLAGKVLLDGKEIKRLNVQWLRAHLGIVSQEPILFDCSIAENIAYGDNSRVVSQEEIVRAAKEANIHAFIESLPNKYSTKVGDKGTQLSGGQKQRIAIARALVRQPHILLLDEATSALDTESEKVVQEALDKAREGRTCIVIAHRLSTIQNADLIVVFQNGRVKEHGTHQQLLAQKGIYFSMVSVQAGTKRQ

Homo sapiens [2] = organism: Homo sapiens; test: Inhibition of P-gp in human HeLaS3 cells assessed as potentiation of paclitaxel-induced cytotoxicity by SRB assay; format: cell-based
[3] = molecular target: T1, ATP-dependent translocase ABCB1; test: Inhibition of ABCB1 (unknown origin) expressed in human Flp-In-293 cells assessed as potentiation of vincristine-induced cytotoxicity at 1 uM by SRB assay relative to control; format: cell-based
Homo sapiens [4] = organism: Homo sapiens; test: Inhibition of P-gp in human KBVIN cells assessed as potentiation of paclitaxel-induced cytotoxicity at 1 uM by SRB assay relative to control; format: cell-based
HEK293 [5] = test: Effect on ABCB1 mRNA expression in human Flp-In-293 cells at 5 uM after 72 hrs by qRT-PCR method; format: functional, cell-based
HEK293 [6] = test: Cytotoxicity against human Flp-In-293 cells expressing MDR1 assessed as reduction in cell viability by SRB assay; format: ADME, cell-based
HEK293 [7] = test: Potentiation of doxorubicin-induced cytotoxicity against human Flp-In-293 cells at 1 uM by SRB assay relative to control; format: functional
Homo sapiens [8] = organism: Homo sapiens; test: Inhibition of P-gp in human HeLaS3 cells assessed as potentiation of doxorubicin-induced cytotoxicity at 2.5 uM by SRB assay relative to control; format: cell-based
Homo sapiens [9] = organism: Homo sapiens; test: Inhibition of P-gp in human KBVIN cells assessed as potentiation of paclitaxel-induced cytotoxicity by SRB assay; format: cell-based
HEK293 [10] = test: Cytotoxicity against human Flp-In-293 cells assessed as reduction in cell viability by SRB assay; format: cell-based
Homo sapiens [11] = organism: Homo sapiens; test: Inhibition of P-gp in human KBVIN cells assessed as potentiation of doxorubicin-induced cytotoxicity at 1 uM by SRB assay relative to control; format: cell-based
HEK293 [12] = test: Potentiation of paclitaxel-induced cytotoxicity against human Flp-In-293 cells at 2.5 uM by SRB assay relative to control; format: functional
Homo sapiens [13] = organism: Homo sapiens; test: Inhibition of P-gp in human KBVIN cells assessed as potentiation of vincristine-induced cytotoxicity by SRB assay; format: cell-based
[14] = molecular target: T1, ATP-dependent translocase ABCB1; test: Inhibition of ABCB1 (unknown origin) expressed in human Flp-In-293 cells assessed as potentiation of doxorubicin-induced cytotoxicity at 1 uM by SRB assay relative to control; format: cell-based
Homo sapiens [15] = organism: Homo sapiens; test: Inhibition of P-gp in human HeLaS3 cells assessed as potentiation of vincristine-induced cytotoxicity at 1 uM by SRB assay relative to control; format: cell-based
Homo sapiens [16] = organism: Homo sapiens; test: Inhibition of P-gp in human HeLaS3 cells assessed as potentiation of vincristine-induced cytotoxicity at 2.5 uM by SRB assay relative to control; format: cell-based
Homo sapiens [17] = organism: Homo sapiens; test: Inhibition of P-gp in human KBVIN cells assessed as potentiation of doxorubicin-induced cytotoxicity by SRB assay; format: cell-based
Homo sapiens [18] = organism: Homo sapiens; test: Inhibition of P-gp in human KBVIN cells assessed as potentiation of vincristine-induced cytotoxicity at 2.5 uM by SRB assay relative to control; format: cell-based
HEK293 [19] = test: Potentiation of vincristine-induced cytotoxicity against human Flp-In-293 cells at 2.5 uM by SRB assay relative to control; format: functional
[20] = Cytotoxicity against human KBVIN assessed as reduction in cell viability by SRB assay; format: cell-based
Homo sapiens [21] = organism: Homo sapiens; test: Inhibition of P-gp in human KBVIN cells assessed as potentiation of paclitaxel-induced cytotoxicity at 2.5 uM by SRB assay relative to control; format: cell-based
[22] = molecular target: T1, ATP-dependent translocase ABCB1; test: Inhibition of ABCB1 (unknown origin) expressed in human Flp-In-293 cells assessed as potentiation of paclitaxel-induced cytotoxicity by SRB assay; format: cell-based
HEK293 [23] = test: Potentiation of doxorubicin-induced cytotoxicity against human Flp-In-293 cells at 2.5 uM by SRB assay relative to control; format: functional
Homo sapiens [24] = organism: Homo sapiens; test: Inhibition of P-gp in human HeLaS3 cells assessed as potentiation of paclitaxel-induced cytotoxicity at 1 uM by SRB assay relative to control; format: cell-based
HEK293 [25] = test: Potentiation of vincristine-induced cytotoxicity against human Flp-In-293 cells at 1 uM by SRB assay relative to control; format: functional
[26] = molecular target: T1, ATP-dependent translocase ABCB1; test: Inhibition of ABCB1 (unknown origin) expressed in human Flp-In-293 cells assessed as potentiation of paclitaxel-induced cytotoxicity at 1 uM by SRB assay relative to control; format: cell-based
[27] = molecular target: T1, ATP-dependent translocase ABCB1; test: Inhibition of ABCB1 (unknown origin) expressed in human Flp-In-293 cells assessed as potentiation of doxorubicin-induced cytotoxicity at 2.5 uM by SRB assay relative to control; format: cell-based
Homo sapiens [28] = organism: Homo sapiens; test: Inhibition of P-gp in human HeLaS3 cells assessed as potentiation of paclitaxel-induced cytotoxicity at 2.5 uM by SRB assay relative to control; format: cell-based
HeLa S3 = test: Cytotoxicity against human HeLaS3 assessed as reduction in cell viability by SRB assay; format: cell-based
[29] = molecular target: T1, ATP-dependent translocase ABCB1; test: Inhibition of ABCB1 (unknown origin) expressed in human Flp-In-293 cells assessed as potentiation of vincristine-induced cytotoxicity by SRB assay; format: cell-based
[30] = molecular target: T1, ATP-dependent translocase ABCB1; test: Inhibition of ABCB1 (unknown origin) expressed in human Flp-In-293 cells assessed as potentiation of paclitaxel-induced cytotoxicity at 2.5 uM by SRB assay relative to control; format: cell-based
HEK293 [31] = test: Effect on ABCB1 mRNA expression in human Flp-In-293 cells expressing ABCB1 at 5 uM after 72 hrs by qRT-PCR method; format: functional, cell-based
[32] = molecular target: T1, ATP-dependent translocase ABCB1; test: Inhibition of ABCB1 (unknown origin) expressed in human Flp-In-293 cells assessed as potentiation of doxorubicin-induced cytotoxicity by SRB assay; format: cell-based
[33] = molecular target: T1, ATP-dependent translocase ABCB1; test: Inhibition of ABCB1 (unknown origin) expressed in Flp-In-293 cells assessed as increase in calcein-AM uptake at 10 uM preincubated for 30 mins followed by calcein-AM addition measured after 30 mins by fluorescence spectrometric method relative to control; format: cell-based; conditions: 0.5 h
Homo sapiens [34] = organism: Homo sapiens; test: Inhibition of P-gp in human HeLaS3 cells assessed as potentiation of vincristine-induced cytotoxicity by SRB assay; format: cell-based
HEK293 [35] = test: Potentiation of paclitaxel-induced cytotoxicity against human Flp-In-293 cells at 1 uM by SRB assay relative to control; format: functional
Homo sapiens [36] = organism: Homo sapiens; test: Inhibition of P-gp in human KBVIN cells assessed as potentiation of doxorubicin-induced cytotoxicity at 2.5 uM by SRB assay relative to control; format: cell-based
Homo sapiens [37] = organism: Homo sapiens; test: Inhibition of P-gp in human KBVIN cells assessed as potentiation of vincristine-induced cytotoxicity at 1 uM by SRB assay relative to control; format: cell-based
Homo sapiens [38] = organism: Homo sapiens; test: Inhibition of P-gp in human HeLaS3 cells assessed as potentiation of doxorubicin-induced cytotoxicity by SRB assay; format: cell-based
Homo sapiens [39] = organism: Homo sapiens; test: Inhibition of P-gp in human HeLaS3 cells assessed as potentiation of doxorubicin-induced cytotoxicity at 1 uM by SRB assay relative to control; format: cell-based
[40] = molecular target: T1, ATP-dependent translocase ABCB1; test: Inhibition of ABCB1 (unknown origin) expressed in human Flp-In-293 cells assessed as potentiation of vincristine-induced cytotoxicity at 2.5 uM by SRB assay relative to control; format: cell-based

In the case of COc1ccc(-c2cc(OCCN3CCCC3)c3c(-c4cccs4)c(N)oc3c2)cc1OC, the “fold change (FC)” value [1] is reported as 8.52, the inhibition (Homo sapiens [2]) is reported as “Dose-dependent effect” and the “fold change (FC)” value [3] is reported as 1.69. For the same molecule, the fold change (FC) (Homo sapiens [4]) was 2.55, the Activity (HEK293 [5]) was “inactive” and the IC50 (HEK293 [6]) was 37 µM. The “fold change (FC)” value (HEK293 [7]) was 0.91, the fold change (FC) (Homo sapiens [8]) was 2.71 and the inhibition (Homo sapiens [9]) was “Dose-dependent effect”. For the same molecule, the IC50 (HEK293 [10]) was 36.5 µM, the fold change (FC) (Homo sapiens [11]) was 1.51 and the “fold change (FC)” value (HEK293 [12]) was 1.38. For the same molecule, the inhibition (Homo sapiens [13]) was “Dose-dependent effect”, the “fold change (FC)” value [14] was 2.78 and the fold change (FC) (Homo sapiens [15]) was 1.17. The fold change (FC) (Homo sapiens [16]) was 1.08, the inhibition (Homo sapiens [17]) was “Dose-dependent effect” and the fold change (FC) (Homo sapiens [18]) was 34.2. The “fold change (FC)” value (HEK293 [19]) was 8.36, the IC50 [20] was 36.3 µM and the fold change (FC) (Homo sapiens [21]) was 9.27. For the same molecule, the “inhibition (INH)” value [22] was “Dose-dependent effect”, the “fold change (FC)” value (HEK293 [23]) was 0.96 and the fold change (FC) (Homo sapiens [24]) was 3.8. For the same molecule, the “fold change (FC)” value (HEK293 [25]) was 4.25, the “fold change (FC)” value [26] was 1.23 and the “fold change (FC)” value [27] was 3.95. For the same molecule, the fold change (FC) (Homo sapiens [28]) was 3.97, the IC50 (HeLa S3) was 38 µM and the “inhibition (INH)” value [29] was “Dose-dependent effect”. The “fold change (FC)” value [30] was 2.65, the Activity (HEK293 [31]) was “inactive” and the “inhibition (INH)” value [32] was “Dose-dependent effect”. For the same molecule, the “fold change (FC)” value [33] was 9.12, the inhibition (Homo sapiens [34]) was “Dose-dependent effect” and the “fold change (FC)” value (HEK293 [35]) was 0.92. The fold change (FC) (Homo sapiens [36]) was 1.88, the fold change (FC) (Homo sapiens [37]) was 25.7 and the inhibition (Homo sapiens [38]) was “Dose-dependent effect”. The fold change (FC) (Homo sapiens [39]) was 0.9 and the “fold change (FC)” value [40] was 5.92.
